Measured values reported in patent US20230272370A1, “GENETICALLY ENCODED YEATS DOMAIN PROBE AND APPLICATIONS THEREOF” (THE UNIVERSITY OF HONG KONG, priority 2020, published 2023).
No end group written: not given here.

Assays:
AF9 YEATS domain = target: T1, AF9 YEATS domain (Homo sapiens, UniProt P42568); test: Isothermal titration calorimetry (ITC) with AF9 YEATS domain; type: binding; details: 25° C.
T1 sequence (P42568 1-138 limits assumed): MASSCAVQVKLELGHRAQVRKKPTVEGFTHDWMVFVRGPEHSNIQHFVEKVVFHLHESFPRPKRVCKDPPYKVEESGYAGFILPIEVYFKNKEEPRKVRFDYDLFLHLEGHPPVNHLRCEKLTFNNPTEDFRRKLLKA
Procedure: Next, I tested whether V3 protein could bind to the YEATS domains and act as a YEATS domain inhibitor. Isothermal titration calorimetry (ITC) was performed to determine the dissociation constant (Kd) between V3 and all four YEATS domain-containing proteins in humans (i.e. AF9, ENL, Gas41, and YEATS2).
ITC was first performed with V3 protein and the AF9 YEATS domain.
Experiments were conducted at 25° C. on a MicroCal PEAQ-ITC titration calorimeter (MicroCal). The buffer for the titration is (150 mM NaCl, 50 mM HEPES, 1 mM TCEP, pH 7.5). Proteins were dialyzed to the titration buffer for overnight before the experiment. The reaction cell contained 200 μL of 30 μM YEATS domain proteins, which was titrated with 300 μM V3 or V3C proteins (10-fold higher than the YEATS domain protein concentration used). The titration contained 20 injections, first 0.5 μL, and all subsequent injections of 2 μL. The binding isotherm was fit with MicroCal PEAQ-ITC analysis software, using a single set of independent sites to determine the thermodynamic dissociation constants and stoichiometry.

CobB = target: T2, CobB (Escherichia coli, UniProt P75960); test: ESI-MS of V3 expressed in E. coli with NAM (CobB deacylation); type: cell-based
T2 construct: endogenous in cells; host or cells: E. coli DH10B
T2 sequence (P75960 whole entry): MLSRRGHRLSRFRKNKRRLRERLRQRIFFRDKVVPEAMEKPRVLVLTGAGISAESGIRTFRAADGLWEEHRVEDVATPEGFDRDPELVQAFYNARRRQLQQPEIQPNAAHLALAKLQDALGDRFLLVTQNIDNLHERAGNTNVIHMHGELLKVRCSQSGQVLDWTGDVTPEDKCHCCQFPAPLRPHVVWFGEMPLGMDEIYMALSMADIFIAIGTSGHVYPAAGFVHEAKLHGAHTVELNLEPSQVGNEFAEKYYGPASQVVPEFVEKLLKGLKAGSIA
Procedure: Since nicotinamide (NAM) is a known inhibitor of the sirtuin family of enzymes, I expressed V3 in the presence of 20 mM NAM.
However, the V3 protein expression level was severely attenuated in the presence of 20 mM NAM (data not shown). Therefore, I attempted several lower NAM concentrations and assessed the purified V3 protein using ESI-MS. […] Thus, 10 mM NAM was added to the culture medium for the subsequent expression of V3 in E. coli.
DH10B cells harboring pEVOL-KfuRS and pBad-V3-2 plasmid were cultured in LB plus corresponding antibiotics. Protein expression was induced by adding 0.2% arabinose, 10 mM NAM, and 1 mM Kfu when O.D. 600 reached 0.4. After expression at 37° C. for 20 h, cells were harvested and washed with PBS. Protein purification was the same as sfGFP150Kfu except that 10 mM NAM was added to lysis buffer to prevent CobB deacylation. V3C was expressed and purified the same as V3.

AF9 protein = test: FRAP of AF9-sfGFP in HEK 293T cells (chromatin binding of AF9); type: cell-based, human
Description: In one embodiment, fluorescence recovery after photobleaching (FRAP) may be used to analyze diffusion and binding of proteins in living cells. It has also been used to assess the cellular efficiency of bromodomain inhibitors in living cells.
In the FRAP experiments, the protein of interest is genetically tagged with a fluorescent protein (e.g., GFP) and expressed inside the cell. Then a portion of the fluorescent-tagged protein are photobleached by an intense laser pulse, and the fluorescence recovery of that photobleached region, which is caused by the migration of fluorescent-tagged proteins back into the bleached area, is monitored over time (FIG. 27a). A fluorescence recovery curve can be generated by plotting the fluorescence intensity with time, and the half time (t1/2), which is the time that the fluorescence intensity takes to recover to half, could also be calculated (FIG. 27b).
Since AF9 protein was reported to associate with chromatin by its YEATS domain, we reasoned that the V3 inhibitor would reduce the binding of AF9 to chromatin and increase its mobility. To test this hypothesis, I fused sfGFP to the C-terminal of AF9 protein and replaced the C-terminal sfGFP of V3-NLS and V3C-NLS to a red fluorescence mCherry protein to avoid fluorescence overlap in FRAP experiments. […]
HEK 293T cells were seeded in 3.5 cm confocal dish at a density of 4-6×10^5 cells per well in 2 mL complete growth medium and let them reach 60-80% confluency at the time of transfection. […] An argon laser (488 nm) was used for photobleaching and fluorescence imaging of sfGFP. The detector was set to detect fluorescence between 500 and 550 nm. […] Fluorescence recovery of sfGFP was monitored by a time series imaging.
The average fluorescence intensity was measured for three regions at each imaging time point, a bleached region (Fbl), a non-bleached reference region (Fref) to correct for the FRAP curve for photofading caused by imaging, the location of reference region should be as far apart as possible from the bleached region. […]

AF9 YEATS domain (human) = AF9 YEATS domain (human) (UniProt P42568); test: ITC, 25° C., 300 µM V3 titrated into 30 µM AF9 YEATS domain
V3-GAL4/AF9-VP64 complex = target: T3, V3-GAL4/AF9-VP64 complex (Homo sapiens, UniProt P42568); test: Luciferase-based two-hybrid assay (V3-GAL4 bait, AF9-VP64 prey); type: cell-based; details: V3-GAL4 bait with AF9-VP64 prey, normalized to V3C-GAL4
T3 construct: expressed in transfected cells; host or cells: HEK 293T
T3 sequence (P42568 1-568): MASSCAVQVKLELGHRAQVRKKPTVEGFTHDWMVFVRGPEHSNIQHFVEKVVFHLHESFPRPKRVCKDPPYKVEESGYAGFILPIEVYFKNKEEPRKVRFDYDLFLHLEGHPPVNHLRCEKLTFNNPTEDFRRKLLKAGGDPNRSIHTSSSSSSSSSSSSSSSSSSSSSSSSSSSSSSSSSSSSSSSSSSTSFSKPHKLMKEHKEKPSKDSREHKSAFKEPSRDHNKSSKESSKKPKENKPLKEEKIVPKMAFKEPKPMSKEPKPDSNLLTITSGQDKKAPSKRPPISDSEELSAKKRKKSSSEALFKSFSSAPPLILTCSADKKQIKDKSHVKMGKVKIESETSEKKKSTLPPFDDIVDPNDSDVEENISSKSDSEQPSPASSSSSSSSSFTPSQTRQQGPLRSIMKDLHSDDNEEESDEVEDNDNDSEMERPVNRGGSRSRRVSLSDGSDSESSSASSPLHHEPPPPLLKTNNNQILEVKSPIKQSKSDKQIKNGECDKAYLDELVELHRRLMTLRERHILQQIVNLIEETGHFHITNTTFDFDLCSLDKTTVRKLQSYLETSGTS
Procedure: FIG. 34A-34D Luciferase-based two hybrid assay. (A) Schematic of the Luciferase-based two hybrid assay. (B) Schematic showing V3-GAL4 and V3C-GAL4 fusion proteins. (C) Immunoblotting analysis the expression of V3-GAL4 and V3C-GAL4 in the presence or absence of 1 mM Kfu in HEK 293T cells. (D) Relative luciferase signal of V3-GAL4 or V3C-GAL4 ‘bait’ in the presence of AF9-VP64 ‘prey’ protein, and with the addition of different concentrations of iMLLT. The luminescence of all the samples was normalized to the V3C-GAL4 sample. Error bars represent SEM from three biological replicates.
To solve the problems in current cell-based methods, as well as develop a robust cell-based technology for the in vivo screening and validation of YEATS domain inhibitors. We sought out to take advantage of the well-developed luciferase-based two-hybrid assay. In the two-hybrid assay, the genetically encoded YEATS domain probe was fused with a GAL4 DNA binding domain and served as ‘bait’, while a transcription activation domain (VP64) was linked to AF9 protein and acted as ‘prey’ (FIG. 34a, b, c). […]

Molecule: V3C: control inhibitor: H3 (4-13) with a normal lysine at the H3 K9 site fused to N-terminal of sfGFP (KQTARKSTGG; also: C-terminus fused to sfGFP)
- dissociation constant (Kd) (AF9 YEATS domain): no detectable binding

Molecule: NC(=O)c1cccnc1 [NAM, nicotinamide]
- inhibition of the deacylation activity of CobB (CobB; 10 mM NAM): sufficient to inhibit
- inhibition of the deacylation activity of CobB (CobB; 20 mM NAM): completely inhibits

Molecule: O=C(CCCCCCC(=O)Nc1ccccc1)NO [SAHA, suberoylanilide hydroxamic acid]
- half recovery time (t1/2) of AF9-sfGFP (AF9 protein; SAHA 2.5 μM for 18 hours before FRAP, untreated 2.5±0.1 seconds): 4.7 ± 0.2 s
- final fluorescence (fluorescence at plateau), of the initial intensity (AF9 protein; SAHA-treated cells, untreated 90%): 75%

Molecule: V3 protein (genetically encoded YEATS domain inhibitor V3; histone H3 (4-13) with 2-furancarbonyl lysine at K9 fused to sfGFP and 6×His tag) (designed binder)
- Kd (AF9 YEATS domain (human)): 2350 nM

Molecule: V3-NLS (mCherry): V3-NLS with C-terminal sfGFP replaced by red fluorescence mCherry protein (KQTARKSTGGHHHHHHKRPAATKKAGQAKKKKL; also: C-terminal mCherry fusion (carrier not in chain))
- half recovery time (t1/2) of AF9-sfGFP (AF9 protein; inhibitor co-expressed, 2.5 μM SAHA added to all groups, no inhibitor control 4.7±0.2 s): 3.1 ± 0.2 s

B1: V3-GAL4: genetically encoded YEATS domain probe fused with a GAL4 DNA binding domain, 'bait' (protein)
chain: KQTARKSTGGMKLLSSIEQACDICRLKKLKCSKEKPKCAKCLKNNWECRYSPKTKRSPLTRAHLTEVESRLERLEQLFLLIFPREDLDMILKMDSLQDIKALLTGLFVQDNVNKDAVTDRLASVETDMPLTLRQHRISATSSSEESSNKGQRQLTVS
- activation level of luciferase (V3-GAL4/AF9-VP64 complex): around 20 folds
